Where a SMILES comes first, the peptide text is derived from it. [ ]: non-standard residue; d: D form. pGlu = O=C1CC[C@@H](C(=O)O)N1; Thz = O=C(O)[C@@H]1CSCN1
O=C1CC[C@@H](C(=O)N2CSC[C@H]2C(=O)O)N1 ([pGlu]-[Thz]-OH)
solubility (mole fraction)
Conditions	278.15 K	283.15 K	288.15 K	293.15 K	298.15 K	303.15 K	308.15 K	313.15 K	318.15 K	323.15 K
in DMF	0.00535	0.00604	0.00734	0.00953	0.0123	0.0151	0.0182	0.0214	0.0253	0.0291
in acetone	3.1e-05	5e-05	8.5e-05	0.000121	0.000176	0.000249	0.000354	0.000522	0.000693	0.000925
in acetonitrile	0.000297	0.000336	0.000426	0.00052	0.000691	0.000855	0.00107	0.00132	0.00159	0.00195
in benzyl alcohol	0.00226	0.00262	0.00307	0.00374	0.00452	0.00553	0.00661	0.00806	0.0101	0.0128
in ethanol	8.3e-05	0.000128	0.000198	0.000303	0.00045	0.000679	0.000986	0.00144	0.00208	0.00292
in isopropanol	9.1e-05	0.000138	0.000209	0.000307	0.000454	0.000663	0.000945	0.00136	0.0019	0.00265
in methanol	0.00121	0.00137	0.00157	0.00184	0.00216	0.00257	0.00305	0.00365	0.00437	0.00528
in n-butanol	0.000227	0.000282	0.000354	0.000439	0.000566	0.00072	0.000908	0.0012	0.00151	0.00197
in water	0.00163	0.00181	0.00205	0.00234	0.0027	0.00313	0.00368	0.00434	0.00509	0.00604

Reference: BigSolDB 2.1
